The supplement of paper PMC10307832

Experiments:
Test in all cases: relative viability (nuclei count vs DMSO), 5 days (fraction); higher = more cells survive
[1] = tested on: NCI-H838
In short: (§1)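 Five library-drug doses in √10 steps were combined with a fixed anchor-drug dose, or a single drug was given alone, by pin tool to lung cancer cell lines in 1536-well plates the day after seeding. Nuclei were stained and counted after 5 days. Relative viability is the nuclei count in treated wells over that in vehicle wells, taken as the median of duplicate plates.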

[2] = tested on: NCI-H2087
In short: as §1

[3] = tested on: NCI-H1651
In short: as §1

[4] = tested on: EPLC-272H
In short: as §1

[5] = tested on: EMC-BAC-2
In short: as §1

[6] = tested on: NCI-H520
In short: as §1

[7] = tested on: LU99A
In short: as §1

[8] = tested on: COR-L23
In short: as §1

[9] = tested on: NCI-H2085
In short: as §1

[10] = tested on: HCC-827
In short: as §1

[11] = tested on: NCI-H1563
In short: as §1

[12] = tested on: NCI-H2405
In short: as §1

[13] = tested on: LCLC-103H
In short: as §1

[14] = tested on: NCI-H650
In short: as §1

[15] = tested on: HCC-44
In short: as §1

[16] = tested on: NCI-H1793
In short: as §1

[17] = tested on: NCI-H1944
In short: as §1

[18] = tested on: SK-MES-1
In short: as §1

[19] = tested on: H3255
In short: as §1

[20] = tested on: ChaGo-K-1
In short: as §1

[21] = tested on: NCI-H2023
In short: as §1

[22] = tested on: NCI-H1395
In short: as §1

COc1nc(C)cnc1NS(=O)(=O)c1cccnc1-c1ccc(-c2nnco2)cc1 [Zibotentan] + CS(=O)(=O)N1CCN(Cc2cc3nc(-c4cccc5[nH]ncc45)nc(N4CCOCC4)c3s2)CC1 [Pictilisib] (partner 1 µM) showed a relative viability ([1]; first compound 0.08 µM) of 0.451, a relative viability ([1]; first compound 0.253 µM) of 0.406 and a relative viability ([1]; first compound 0.8 µM) of 0.582. It also gave a relative viability ([1]; first compound 2.53 µM) of 0.518, a relative viability ([2]; first compound 0.08 µM) of 0.881 and a relative viability ([2]; first compound 0.253 µM) of 0.834. The relative viability ([2]; first compound 0.8 µM) was 1.01, the relative viability ([2]; first compound 2.53 µM) was 0.954 and the relative viability ([3]; first compound 0.08 µM) was 0.742. The relative viability ([3]; first compound 0.253 µM) was 0.427, the relative viability ([3]; first compound 0.8 µM) was 0.705 and the relative viability ([3]; first compound 2.53 µM) was 0.602. For the same compound, the relative viability ([4]; first compound 0.08 µM) was 0.363, the relative viability ([4]; first compound 0.253 µM) was 0.289 and the relative viability ([4]; first compound 0.8 µM) was 0.239. It also gave a relative viability ([4]; first compound 2.53 µM) of 0.297, a relative viability ([5]; first compound 0.08 µM) of 0.568 and a relative viability ([5]; first compound 0.253 µM) of 0.529. For the same compound, the relative viability ([5]; first compound 0.8 µM) was 0.56, the relative viability ([5]; first compound 2.53 µM) was 0.56 and the relative viability ([6]; first compound 0.08 µM) was 0.336. For the same compound, the relative viability ([6]; first compound 0.253 µM) was 0.233, the relative viability ([6]; first compound 0.8 µM) was 0.311 and the relative viability ([6]; first compound 2.53 µM) was 0.316. For the same compound, the relative viability ([7]; first compound 0.08 µM) was 0.362, the relative viability ([7]; first compound 0.253 µM) was 0.314 and the relative viability ([7]; first compound 0.8 µM) was 0.343. The relative viability ([7]; first compound 2.53 µM) was 0.371, the relative viability ([8]; first compound 0.08 µM) was 0.728 and the relative viability ([8]; first compound 0.253 µM) was 0.662. For the same compound, the relative viability ([8]; first compound 0.8 µM) was 0.757, the relative viability ([8]; first compound 2.53 µM) was 0.921 and the relative viability ([9]; first compound 0.08 µM) was 0.477. It also gave a relative viability ([9]; first compound 0.253 µM) of 0.495, a relative viability ([9]; first compound 0.8 µM) of 0.477 and a relative viability ([9]; first compound 2.53 µM) of 0.517. It also gave a relative viability ([10]; first compound 0.08 µM) of 0.95, a relative viability ([10]; first compound 0.253 µM) of 0.846 and a relative viability ([10]; first compound 0.8 µM) of 0.964. The relative viability ([10]; first compound 2.53 µM) was 0.956, the relative viability ([11]; first compound 0.08 µM) was 0.635 and the relative viability ([11]; first compound 0.253 µM) was 0.594. It also gave a relative viability ([11]; first compound 0.8 µM) of 0.652, a relative viability ([11]; first compound 2.53 µM) of 0.639 and a relative viability ([12]; first compound 0.08 µM) of 0.441. The relative viability ([12]; first compound 0.253 µM) was 0.339, the relative viability ([12]; first compound 0.8 µM) was 0.473 and the relative viability ([12]; first compound 2.53 µM) was 0.481. It also gave a relative viability ([13]; first compound 0.08 µM) of 0.681, a relative viability ([13]; first compound 0.253 µM) of 0.558 and a relative viability ([13]; first compound 0.8 µM) of 0.55. For the same compound, the relative viability ([13]; first compound 2.53 µM) was 0.608, the relative viability ([14]; first compound 0.08 µM) was 0.921 and the relative viability ([14]; first compound 0.253 µM) was 0.773. For the same compound, the relative viability ([14]; first compound 0.8 µM) was 0.743, the relative viability ([14]; first compound 2.53 µM) was 0.821 and the relative viability ([15]; first compound 0.08 µM) was 0.591. It also gave a relative viability ([15]; first compound 0.253 µM) of 0.625, a relative viability ([15]; first compound 0.8 µM) of 0.607 and a relative viability ([15]; first compound 2.53 µM) of 0.784. It also gave a relative viability ([16]; first compound 0.08 µM) of 0.429, a relative viability ([16]; first compound 0.253 µM) of 0.306 and a relative viability ([16]; first compound 0.8 µM) of 0.391. It also gave a relative viability ([16]; first compound 2.53 µM) of 0.345, a relative viability ([17]; first compound 0.08 µM) of 0.368 and a relative viability ([17]; first compound 0.253 µM) of 0.323. For the same compound, the relative viability ([17]; first compound 0.8 µM) was 0.338, the relative viability ([17]; first compound 2.53 µM) was 0.393 and the relative viability ([18]; first compound 0.08 µM) was 0.344. It also gave a relative viability ([18]; first compound 0.253 µM) of 0.356, a relative viability ([18]; first compound 0.8 µM) of 0.388 and a relative viability ([18]; first compound 2.53 µM) of 0.428. The relative viability ([19]; first compound 0.08 µM) was 0.467, the relative viability ([19]; first compound 0.253 µM) was 0.485 and the relative viability ([19]; first compound 0.8 µM) was 0.467. The relative viability ([19]; first compound 2.53 µM) was 0.549, the relative viability ([20]; first compound 0.08 µM) was 0.653 and the relative viability ([20]; first compound 0.8 µM) was 0.426. For the same compound, the relative viability ([20]; first compound 2.53 µM) was 0.691, the relative viability ([21]; first compound 0.08 µM) was 0.279 and the relative viability ([21]; first compound 0.253 µM) was 0.127. It also gave a relative viability ([21]; first compound 0.8 µM) of 0.226, a relative viability ([21]; first compound 2.53 µM) of 0.26 and a relative viability ([22]; first compound 0.08 µM) of 0.789. It also gave a relative viability ([22]; first compound 0.253 µM) of 0.546, a relative viability ([22]; first compound 0.8 µM) of 0.606 and a relative viability ([22]; first compound 2.53 µM) of 0.541.
